Common to all, as to assay type: functional, cell-based
Test [1] deals with KB. Briefly: Cytotoxicity against vincristine-sensitive human KB cells after 72 hrs by alamar blue assay. On the technique in general: Alamar Blue is a resazurin reagent that responds to reducing activity.
For test [2], the system named is HL-60. As to the kind of experiment: Induction of human HL60 cell differentiation assessed as morphological change at 0.05 to 25 ug/ml by phase-contrast microscopy.
Test [3] has as its system KB/VJ300. As to the kind of experiment: Reversal of vincristine resistance in human KB/VJ300 cells.
Test [4] deals with KB/VJ300. As to the kind of experiment: Cytotoxicity against vincristine-resistant human KB/VJ300 cells after 72 hrs by alamar blue assay.
Test [5] is filed under the species Homo sapiens. As to the kind of experiment: Cytotoxicity against human KU-19-20 cells after 72 hrs by alamar blue assay.

The structures appear in SMILES notation. Values after ≈ are worked out from the molar mass of the structure shown. Active and inactive are the calls of the source. The rule behind the calls is not given here.

As usually defined, the IC50 is the midpoint of a concentration-inhibition curve. Read a high IC50 as weaker potency in that assay. Turning to `C=C(C)[C@@H]1CC[C@]2(CO)CC[C@]3(C)[C@H](CC[C@@H]4[C@@]5(C)C[C@@H](O)C(=O)C(C)(C)[C@@H]5CC[C@]43C)[C@H]12` [MAYTEFOLIN A], in test [1], the IC50 was above 10 µg/mL. Also, the outcome in test [2] and in test [3] was inactive.

Turning to `C[C@H]1[C@H](C)CC[C@]2(CO)CC[C@]3(C)C(=CC[C@@H]4[C@@]5(C)CC[C@H](OC(=O)/C=C/c6ccc(O)c(O)c6)C(C)(C)[C@@H]5CC[C@]43C)[C@H]12`, the IC50 in test [1] was above 10 µg/mL. Besides, the outcome in test [2] and in test [3] was inactive.

In test [1], `CC1(C)CC[C@]2(CO)CC[C@]3(C)C(=CC[C@@H]4[C@@]5(C)CC[C@H](O)C(C)(C)[C@@H]5CC[C@]43C)[C@@H]2C1` [ERYTHRODIOL] registered a half-maximal inhibitory concentration (IC50) of 7 µg/mL (≈ 15.8 µM). Besides, the result in test [4] and in test [5] was Active. Besides, the result in test [2] and in test [3] was inactive.

On to `CC1(C)CC[C@]2(CO)CC[C@]3(C)C(=CC[C@@H]4[C@@]5(C)CC[C@H](OC(=O)/C=C/c6ccc(O)c(O)c6)C(C)(C)[C@@H]5CC[C@]43C)[C@H]2C1`, for which the IC50 in test [1] is above 10 µg/mL. Moreover, the outcome in test [2] and in test [3] was inactive.

Take `C=C(C)[C@@H]1CC[C@]2(CO)CC[C@]3(C)[C@H](CC[C@@H]4[C@@]5(C)CC[C@H](O)C(C)(C)[C@@H]5CC[C@]43C)[C@@H]12` [BETULIN]: the IC50 in test [1] was above 10 µg/mL. Further, the outcome in test [2] and in test [3] was inactive.

Consider `C=C(C)[C@@H]1CC[C@]2(CO)CC[C@]3(C)[C@H](CC[C@@H]4[C@@]5(C)CC[C@H](OC(=O)/C=C/c6ccc(O)c(O)c6)C(C)(C)[C@@H]5CC[C@]43C)[C@@H]12`, for which the IC50 in test [1] was above 10 µg/mL. The outcome in test [2] and in test [3] was inactive.

Source of the values: ChEMBL document CHEMBL1146515, “Four new triterpenoids from Maytenus ilicifolia” (J Nat Prod, 2004).
